Laboratory results from patent US20080131432A1, “Method of treating the chemotoxic effects of chemotherapeutic drugs on brain tissue” (University of Kentucky Research Foundation, priority 2005, published 2008).
Entries after “also recorded” stand apart in the source; their conditions may differ. Counter-ions that a name gives are not always drawn.

How the values were obtained:
[1] = system: cortical and hippocampal cells; experiment: TUNEL-positive apoptotic cell death in cortical and hippocampal regions; format: in vivo, mouse; details: 3 and 72 hours after ADR, vs saline
Experimental: (A) Brain cryosection tissues were treated with biotinylated rTdT, followed by streptavidin peroxidase and diaminobenzidine-hydrogen peroxide, and counterstained with methyl-green. […] (For interpretation of the references to colour in this figure legend, the reader is referred to the web version of this article.)

[2] = seventy-two hours after a single intraperitoneal injection of ADR; cited from earlier work
[3] = system: cytochrome c; experiment: Cytochrome c release from mitochondria to cytosol (Western blot); format: in vivo, mouse; details: brain tissue 3 hours after ADR
Experimental: Western blot analyses of cytochrome c and succinate dehydrogenase or β-actin were determined in mitochondrial or cytosolic fractions isolated from brain tissues 3 hours after mice were treated with ADR, and anti-TNF antibody immediately followed by ADR, and anti-TNF antibody, IgG, or saline as controls. Cytochrome c was decreased in mitochondria (*P<0.01) but increased cytosol after treatment with ADR or IgG followed by ADR. Succinate dehydrogenase or β-actin were used to normalize for protein loading. The Western blots shown a re a representative set of data of n=3 separate sets from individual animals. Quantification of all the data

[4] = system: caspase 3; experiment: Caspase 3 activity in brain tissues; format: in vivo, mouse; details: 3 and 72 hours after 20 mg/kg ADR; hydrochloride
[5] = system: 3-nitrotyrosine; experiment: Nitrotyrosine-adducted proteins in isolated brain mitochondria (slot blot); format: in vivo, mouse; details: 3 hours after ADR 20 mg/kg, hydrochloride
Experimental: 3-Nitrotyrosine levels, a peroxynitrite reaction product marker, were determined as described previously (Lauderback et al. 2001). Briefly, 5 μg isolated mitochondrial proteins were incubated with Laemmli sample buffer (0.125 M Trisma base, pH 6.8, 4% SDS, 20% glycerol) for 20 minutes, and then 250 ng protein were blotted onto the nitrocellulose membrane using a slot-blot apparatus. The membrane was rinsed with TBST buffer, blocked by incubation in the presence of 5% BSA, followed by incubation with rabbit polyclonal anti-nitrotyrosine antibody as primary antibody for 1 h. The membranes were washed with TBST buffer and further incubated with goat anti-rabbit horseradish peroxidase-conjugated secondary antibody for 1 h. After incubation with secondary antibody, the membrane was washed twice with TBST and once in TBS (TBS without 0.05% Tween-20). Immunoreactivities of the protein bands were detected by ECL (Amersham Phamacia Biotech) as described by the manufacturer. Blots were scanned with Adobe Photoshop and quantified by the densitometry method (Bio-Rad).

[6] = system: TNF α; experiment: TNF α levels in serum (mouse TNF-α ELISA); format: in vivo
Experimental: Mice were treated with 20 mg/kg ADR or saline as control. Blood samples were collected at 1, 3, 6, 9, 24 hours and allowed to clot at 2-8° C. overnight. Serum samples were used to measure TNF α levels, according to the mouse enzyme-linked immunosorbent assay following the manufacturers' instructions (mouse TNF-α/TNFSF1A immunoassay, R&D Systems, Minneapolis, MN). The TNF α concentration in the sample was calculated from a recombinant mouse TNF α standard curve. The minimum detection limit is typically less than 5.1 pg/mL.
8-week-old male B6C3 mice (25-30 g) were kept under standard conditions. Mice were injected with a single intraperitoneal (i.p.) treatment with adriamycin (doxorubicin hydrochloride, 20 mg/kg), TNF-α, anti-mouse TNF-antibody (40 ng/kg), dipropylenetriamine NONOate (DPTA NONOate, […]), lipopolysaccharide (LPS 1 mg/kg), NG-nitro-L-arginine-methyl esther (L-NAME, 10 mg/kg) or pre-immune IgG.
Mice were treated with 20 mg/kg ADR, TNF-α, anti-mouse TNF-antibody, dipropylenetriamine NONOate, lipopolysaccharide, NG-nitro-L-arginine-methyl esther or pre-immune IgG, as well as saline as control. Blood samples were collected at 3 hours after ADR treatment and allowed to clot at 2-8° C. overnight. Serum samples were used to measure TNF levels, according to the mouse enzyme-linked immunosorbent assay following the manufacturers' instructions (mouse TNF-α/TNFSF1A immunoassay, R&D Systems, Minneapolis, Minn.). The TNF concentration in the sample was calculated from a recombinant mouse TNF standard curve. The minimum detection limit is typically less than 5.1 pg/mL.

[7] = in vivo; cited from earlier work
[8] = system: TNF α; experiment: TNF α levels in brain tissue homogenates (Western blot); format: in vivo, mouse; details: 3 hours after single dose, vs saline control
Experimental: Brains perfused with PBS were isolated and dissected from four groups of mice 3 hours post injection of a single dose of ADR, anti-TNF α antibody, anti-TNF α antibody immediately followed by ADR, or saline treated mice. Brain was isolated and placed in 0.1 M PBS, pH 7.4 containing protease inhibitors, 4 μg leupeptin, 4 μg pepstatin, and 5 μg aprotinin, washed and minced in ice-cold PBS containing protease inhibitors. […] Protein concentration of brain homogenate was determined by the Bradford assay (Bradford, 1976).
Perfused brain homogenates and isolated mitochondrial proteins were size-separated via 12.5% denaturing polyacrylamide gel electrophoresis (SDS-PAGE) and transferred to a nitrocellulose membrane. The membrane was blocked for 1 hour at room temperature in blocking solution consisting of 5% non-fat dried milk, 0.5% Tween-20 and Tris-buffered saline (TBST), pH 7.9. […] Immunoreactivities of the protein bands were detected by enhanced chemiluminescence autoradiography (ECL, Amersham Phamacia Biotech, Arlington Heights, Ill.) as described by the manufacturer.

COc1cccc2c1C(=O)c1c(O)c3c(c(O)c1C2=O)C[C@@](O)(C(=O)CO)C[C@@H]3O[C@H]1C[C@H](N)[C@H](O)[C@H](C)O1 [ADR, Doxorubicin hydrochloride]
TUNEL-positive apoptotic cells in cortex and hippocampus [1]: increased number of apoptotic cells
Levels of protein oxidation and lipid peroxidation in brain tissues [2]: significant increase
Cytochrome c in cytosolic fraction [3]: increased
Cytochrome c in mitochondrial fraction [3]: decreased
Caspase 3 activity in brain tissues [4]: significantly increased; also recorded: increased at 72 hours compared with 3 hours
Tyrosine-nitrated proteins in brain mitochondria ([5]; iNOSKO mice): no difference with controls
Tyrosine-nitrated proteins in brain mitochondria ([5]; wild-type mice): significantly increased protein nitration
Time course of increased serum TNF α ([6]; 20 mg/kg ADR, blood at 1, 3, 6, 9, 24 hours, hydrochloride): detectable as early as 1 hour and were sustained throughout a 24 hour period; also recorded: increased at the earliest time point examined
TNF-α level in serum (circulating TNF-α) ([6]; iNOSKO mice, 3 hours after treatment): significantly elevated
TNF α level in serum (circulating TNF α) ([6]; wild-type mice, 3 hours after single i.p. treatment, vs saline control, hydrochloride): significantly higher; also recorded: significantly elevated
Crossing of the blood brain barrier [7]: does not cross the blood brain barrier
TNF α levels in brain tissue homogenates [8]: significantly increased
